Measured values: patent publication US20130023494A1, “MODULATORS OF THE GPR119 RECEPTOR AND THE TREATMENT OF DISORDERS RELATED THERETO” (ARENA PHARMACEUTICALS, INC., priority 2010, published 2013)

Assays:
hGPR119 = biological target: T1, hGPR119 (Homo sapiens, UniProt Q8TDV5); assay: HTRF cAMP assay in CHO-K1 cells stably expressing the GPR119 receptor; assay type: cell-based; conditions: 1 h room temperature
T1 construct: expressed in transfected cells
T1 sequence (Q8TDV5 2-335 limits assumed): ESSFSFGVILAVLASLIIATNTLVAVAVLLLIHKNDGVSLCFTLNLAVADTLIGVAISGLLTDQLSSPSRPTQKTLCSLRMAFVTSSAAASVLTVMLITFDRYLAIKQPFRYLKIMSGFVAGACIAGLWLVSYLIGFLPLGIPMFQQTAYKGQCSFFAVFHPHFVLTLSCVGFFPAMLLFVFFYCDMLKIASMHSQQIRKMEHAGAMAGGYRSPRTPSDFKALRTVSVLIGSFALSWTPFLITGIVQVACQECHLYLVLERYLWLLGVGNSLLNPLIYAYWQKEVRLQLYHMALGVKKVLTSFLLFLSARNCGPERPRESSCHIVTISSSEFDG
Method: GPR119 agonists were evaluated in an HTRF® cAMP detection assay according to the manufacturer's instructions (Cisbio, cAMP Dynamic 2 Assay Kit; #62AM4PEJ) using CHO-K1 cells stably expressing the GPR119 receptor. Briefly, CHO-K1 cells were transduced with a lentiviral vector encoding the nucleotide sequence of GPR119 (NCBI mRNA and protein reference sequences: NM_178471.2 & NP_848566, (GPR119 has also been referred to as Glucose-Dependent Insulinotropic Receptor (GDIR)). The N-terminus of the GPR119 nucleotide sequence was modified to replace the first, methionine-coding codon with a nucleotide sequence coding for a standard, nine amino acid, hemagglutinin tag. Following transduction, cells expressing the GPR119 receptor were isolated and a single clone was isolated following standard dilution-cloning procedures. On the day of the assay, cultured CHO-GPR119 cells were harvested, suspended in assay buffer and plated into 384-well assay plates (PerkinElmer Proxiplate #6008280) at a density of 2,000 cells per well. A cAMP standard curve was added to each plate. Test compounds were solubilized in DMSO, serially diluted in DMSO and then diluted in assay buffer before adding to the cells. Test compounds were evaluated in triplicate, using 10-point, 5-fold serial dilutions starting at 10 μM. The final DMSO concentration in the assay was 0.5%. Compounds and cells were incubated for 1 h at room temperature and then detection reagents were added to each well (cAMP-D2 in cell lysis buffer, followed by europium cryptate-labeled anti-cAMP antibody). Plates were then incubated at room temperature for 1 h prior to reading. Time-resolved fluorescence measurements were collected on PerkinElmer Envision™ or BMG Pherastar™ microplate readers. The compound N-(2-fluoro-4-(methylsulfonyl)phenyl)-6-(4-(3-isopropyl-1,2,4-oxadiazol-5-yl)piperidin-1-yl)-5-nitropyrimidin-4-amine was used as a positive control in each runset while assay buffer containing 0.5% DMSO was used as the negative control. The HTRF® assay was used to determine EC50 values for GPR119 agonists.

incretin hormone GIP = assay: Incretin hormone GIP release in male 129SVE mice (Total GIP ELISA); assay type: in vivo, mouse; conditions: 10 mpk p.o., plasma sample after 45 min, PET vehicle 72.5
Method: Male 129SVE mice (approximately 8-week old) were fasted for 18 h and randomly grouped (n=6) to receive a GPR119 agonist (Compound 28, Compound 73, Compound 71, Compound 62, and Compound 30) at 10 mpk dose (mg/kg body weight). Compounds were delivered orally via a gavage needle (p.o., volume 4 mL/kg), and after 45 min a blood sample was collected to determine plasma total GIP levels. A separate group received vehicle (PET: 80% PEG:10% Ethanol:10% Tween80™) as control. Plasma GIP levels were determined using a Total GIP ELISA kit from Millipore.

male diabetic ZDF rats = assay: Oral glucose tolerance test (oGTT) in male diabetic ZDF rats; assay type: in vivo, rat; conditions: for % Inhibition of Glucose Excursion (dose: mg/kg): ZDF rats, glucose excursion AUC reduction relative to vehicle; for blood glucose after challenge with glucose: diabetic ZDF rats
Method: FIGS. 1 to 4, 16 and 17 show results of three independent experiments with three representative GPR119 agonists of the present invention, namely, Compound 28, Compound 62, and Compound 83. In each experiment, male ZDF rats (approximately 10-week old) were fasted for 18 hours and randomly grouped (n=6) to receive a GPR119 agonist (Compound 28, Compound 62, or Compound 83) at indicated doses (mg/kg body weight). Compounds were delivered orally via a gavage needle (p.o., volume 4 mL/kg) 1 h prior to glucose bolus (3 g/kg) (time=−60 min in FIGS. 1, 3, and 16), with a separate group receiving vehicle (20% hydroxypropyl-beta-cyclodextrin) as control in each experiment. At time 0 min the glucose bolus was administered. Levels of blood glucose were assessed using a glucometer (One-Touch Ultra™, LifeScan) at time −60 min (prior to compound administration), at 0 min (time when glucose bolus was given), and at 30, 60, 90, 120 min post glucose bolus. The plasma glucose excursion curves are given in FIGS. 1, 3, and 16, and glucose excursion AUC (area under the curve) reductions in compound treated animals relative to vehicle control are given in FIGS. 2, 4, and 17, and in Table 1.

[1] = 10 mg/kg p.o. 1 h prior to glucose bolus (3 g/kg)

CC(C)(C)OC(=O)N1CCC(O[C@H]2CC[C@@H](Oc3ccc(S(C)(=O)=O)cc3)CC2)CC1 [Compound 1, tert-butyl 4-((1s,4s)-4-(4-(methylsulfonyl)phenoxy)cyclohexyloxy)piperidine-1-carboxylate]
EC50 (hGPR119): 266 nM

CC(C)(C)OC(=O)N1CCC(O[C@H]2CC[C@H](Oc3ccc(S(C)(=O)=O)cc3F)CC2)CC1 [Compound 5, tert-butyl 4-((1r,4r)-4-(2-fluoro-4-(methylsulfonyl)phenoxy)cyclohexyloxy)piperidine-1-carboxylate]
EC50 (hGPR119): 8 nM

CC(C)OC(=O)N1CCC(O[C@H]2CC[C@H](Oc3ccc(S(C)(=O)=O)cc3F)CC2)CC1 [Compound 13, isopropyl 4-((1r,4r)-4-(2-fluoro-4-(methylsulfonyl)phenoxy)cyclohexyloxy)piperidine-1-carboxylate]
EC50 (hGPR119): 19 nM

CC(C)(F)c1noc(N2CCC(O[C@H]3CC[C@H](Oc4cnc(S(C)(=O)=O)cn4)CC3)CC2)n1 [Compound 30, 3-(2-fluoropropan-2-yl)-5-(4-((1r,4r)-4-(5-(methylsulfonyl)pyrazin-2-yloxy)cyclohexyloxy)piperidin-1-yl)-1,2,4-oxadiazole]
Total GIP, pg/mL (dose, mg/kg) (incretin hormone GIP): 375.7 pg/mL

CC(C)(C)OC(=O)CN1CCC(O[C@H]2CC[C@H](Oc3ccc(S(C)(=O)=O)cc3)CC2)CC1 [Compound 35, tert-butyl 2-(4-((1r,4r)-4-(4-(methylsulfonyl)phenoxy)cyclohexyloxy)piperidin-1-yl)acetate]
EC50 (hGPR119): 426 nM

CCC(F)(F)C(=O)N1CCC(O[C@H]2CC[C@H](Oc3ccc(S(C)(=O)=O)cc3)CC2)CC1 [Compound 48, 2,2-difluoro-1-(4-((1r,4r)-4-(4-(methylsulfonyl)phenoxy)cyclohexyloxy)piperidin-1-yl)butan-1-one]
EC50 (hGPR119): 11 nM

CC(C)(F)c1nc(N2CCC(O[C@H]3CC[C@H](Oc4cnc(S(C)(=O)=O)cn4)CC3)CC2)no1 [Compound 62, 5-(2-fluoropropan-2-yl)-3-(4-((1r,4r)-4-(5-(methylsulfonyl)pyrazin-2-yloxy)cyclohexyloxy)piperidin-1-yl)-1,2,4-oxadiazole]
% Inhibition of Glucose Excursion (dose: mg/kg) (male diabetic ZDF rats; 3.3 mg/kg p.o. 1 h prior to glucose bolus (3 g/kg)): 25.7% (3.3)
% Inhibition of Glucose Excursion (dose: mg/kg) (male diabetic ZDF rats; [1]): 32.7% (10)
% Inhibition of Glucose Excursion (dose: mg/kg) (male diabetic ZDF rats; 30 mg/kg p.o. 1 h prior to glucose bolus (3 g/kg)): 48.0% (30)
blood glucose after challenge with glucose (male diabetic ZDF rats): lowered blood glucose
Total GIP, pg/mL (dose, mg/kg) (incretin hormone GIP): 368.5 pg/mL

C=C(C)c1noc(N2CCC(O[C@H]3CC[C@H](Oc4cnc(S(C)(=O)=O)cn4)CC3)CC2)n1 [Compound 69, 5-(4-((1r,4r)-4-(5-(methylsulfonyl)pyrazin-2-yloxy)cyclohexyloxy)piperidin-1-yl)-3-(prop-1-en-2-yl)-1,2,4-oxadiazole]
EC50 (hGPR119): 31 nM

CS(=O)(=O)c1cnc(O[C@H]2CC[C@H](OC3CCN(C(=O)OC(CF)CF)CC3)CC2)cn1 [Compound 71, 1,3-difluoropropan-2-yl 4-((1r,4r)-4-(5-(methylsulfonyl)pyrazin-2-yloxy)cyclohexyloxy)piperidine-1-carboxylate]
Total GIP, pg/mL (dose, mg/kg) (incretin hormone GIP): 379.8 pg/mL

CCC(F)(F)C(=O)N1CCC(O[C@H]2CC[C@H](Oc3cnc(S(C)(=O)=O)cn3)CC2)CC1 [Compound 73, 2,2-difluoro-1-(4-((1r,4r)-4-(5-(methylsulfonyl)pyrazin-2-yloxy)cyclohexyloxy)piperidin-1-yl)butan-1-one]
Total GIP, pg/mL (dose, mg/kg) (incretin hormone GIP): 195.2 pg/mL

CC(C)OC(=O)N1CCC(O[C@H]2CC[C@H](Oc3cnc(-c4ccnnc4)cn3)CC2)CC1 [Compound 77, isopropyl 4-((1r,4r)-4-(5-(pyridazin-4-yl)pyrazin-2-yloxy)cyclohexyloxy)-piperidine-1-carboxylate]
EC50 (hGPR119): 281 nM

C[C@@H](OC(=O)N1CCC(O[C@H]2CC[C@H](Oc3cnc(S(C)(=O)=O)cn3)CC2)CC1)C(F)(F)F [Compound 83, (R)-1,1,1-trifluoropropan-2-yl 4-((1r,4r)-4-(5-(methylsulfonyl)pyrazin-2-yloxy)cyclohexyloxy)piperidine-1-carboxylate]
% Inhibition of Glucose Excursion (dose: mg/kg) (male diabetic ZDF rats; 1.0 mg/kg p.o. 1 h prior to glucose bolus (3 g/kg)): 14.4% (1.0)
% Inhibition of Glucose Excursion (dose: mg/kg) (male diabetic ZDF rats; 3.0 mg/kg p.o. 1 h prior to glucose bolus (3 g/kg)): 44.3% (3.0)
% Inhibition of Glucose Excursion (dose: mg/kg) (male diabetic ZDF rats; [1]): 57.9% (10)
blood glucose after challenge with glucose (male diabetic ZDF rats): lowered blood glucose
EC50 (hGPR119): 3 nM

CC(C)c1noc(N2CCC(O[C@H]3CC[C@H](Oc4cnc(C(=O)N(C)C)cn4)CC3)CC2)n1 [Compound 98, 5-((1r,4r)-4-(1-(3-isopropyl-1,2,4-oxadiazol-5-yl)piperidin-4-yloxy)cyclohexyloxy)-N,N-dimethylpyrazine-2-carboxamide]
EC50 (hGPR119): 152 nM

Cc1nc(S(C)(=O)=O)ccc1O[C@H]1CC[C@H](OC2CCN(C(=O)SC(C)C)CC2)CC1 [Compound 116, S-isopropyl 4-((1r,4r)-4-(2-methyl-6-(methylsulfonyl)pyridin-3-yloxy)cyclohexyloxy)piperidine-1-carbothioate]
EC50 (hGPR119): 5 nM
